In this test the target is Vascular endothelial growth factor receptor 2 (Homo sapiens) (UniProt P35968). Briefly: Binding affinity to VEGFR2 extracellular domain.

The source made the active and inactive calls. No cut-off for these calls is given here. Square brackets hold non-standard residues; d marks the D form. Peptide text beside a SMILES is read from it. * marks the point of attachment. ξ: configuration not given here. X1 = O=C(O)c1cc(N2C(=O)CC(*)C2=O)ccc1-c1c2ccc(=O)cc-2oc2cc(O)ccc12; Gly(N-piperonyl) = O=C(O)CNCc1ccc2c(c1)OCO2; Nrpe = C[C@@H](NCC(=O)O)c1ccccc1; Nleu = CC(C)CNCC(=O)O; Nlys = NCCCCNCC(=O)O; ξC = NC(CS)C(=O)O

Drawing on ChEMBL document CHEMBL1154496, “The pharmacophore of a peptoid VEGF receptor 2 antagonist includes both side chain and main chain residues” (Bioorg Med Chem Lett, 2008), this text covers Activity for three molecules.

Chain of Vascular endothelial growth factor receptor 2 (Homo sapiens) (P35968 whole entry, the tested form may be a part): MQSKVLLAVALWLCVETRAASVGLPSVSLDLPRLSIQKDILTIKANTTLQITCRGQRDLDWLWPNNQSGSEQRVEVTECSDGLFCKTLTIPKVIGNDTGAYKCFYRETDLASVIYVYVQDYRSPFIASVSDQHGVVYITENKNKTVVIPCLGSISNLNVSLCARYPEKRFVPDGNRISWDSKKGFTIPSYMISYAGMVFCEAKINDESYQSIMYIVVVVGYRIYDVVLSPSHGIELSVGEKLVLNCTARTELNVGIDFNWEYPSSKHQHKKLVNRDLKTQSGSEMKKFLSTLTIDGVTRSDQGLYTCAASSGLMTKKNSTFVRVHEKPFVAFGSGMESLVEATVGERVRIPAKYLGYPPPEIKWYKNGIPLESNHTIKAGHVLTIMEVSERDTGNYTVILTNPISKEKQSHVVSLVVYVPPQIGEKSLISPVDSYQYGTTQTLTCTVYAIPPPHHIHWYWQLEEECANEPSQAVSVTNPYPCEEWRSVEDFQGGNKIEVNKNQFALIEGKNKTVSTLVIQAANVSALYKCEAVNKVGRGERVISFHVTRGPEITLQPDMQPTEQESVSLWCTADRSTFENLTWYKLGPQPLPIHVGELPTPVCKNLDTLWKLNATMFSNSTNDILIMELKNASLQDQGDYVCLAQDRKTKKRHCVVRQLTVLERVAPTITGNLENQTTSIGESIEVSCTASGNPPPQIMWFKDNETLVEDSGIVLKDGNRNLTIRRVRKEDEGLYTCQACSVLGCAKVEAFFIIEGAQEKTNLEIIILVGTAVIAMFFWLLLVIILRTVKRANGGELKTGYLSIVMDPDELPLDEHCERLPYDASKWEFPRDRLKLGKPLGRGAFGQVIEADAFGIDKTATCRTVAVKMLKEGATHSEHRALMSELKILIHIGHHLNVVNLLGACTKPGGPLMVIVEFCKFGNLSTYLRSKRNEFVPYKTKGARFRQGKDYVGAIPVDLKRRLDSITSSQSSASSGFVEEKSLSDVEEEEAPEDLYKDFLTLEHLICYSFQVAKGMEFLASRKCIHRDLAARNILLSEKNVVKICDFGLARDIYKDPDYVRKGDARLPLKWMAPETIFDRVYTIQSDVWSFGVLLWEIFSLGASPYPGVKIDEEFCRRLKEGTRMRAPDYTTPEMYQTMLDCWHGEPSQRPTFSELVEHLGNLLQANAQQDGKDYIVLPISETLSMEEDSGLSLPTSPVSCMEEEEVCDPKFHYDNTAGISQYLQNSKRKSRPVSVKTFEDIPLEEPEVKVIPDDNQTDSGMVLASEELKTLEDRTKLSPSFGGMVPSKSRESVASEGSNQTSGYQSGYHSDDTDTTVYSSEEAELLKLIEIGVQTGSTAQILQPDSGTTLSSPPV

Regarding `CC(C)CN(CC(=O)N(CCCCN)CC(=O)N(CC(=O)N(CC(=O)N(CCCCN)CC(=O)N(CC(=O)N(CCCCN)CC(=O)N(CCCCN)CC(N)=O)CC(C)C)Cc1ccc2c(c1)OCO2)[C@H](C)c1ccccc1)C(=O)CNCCCCN` (H-[Nlys][Nleu][Nlys][Nrpe][Gly(N-piperonyl)][Nlys][Nleu][Nlys][Nlys]-NH2), the result was Active.

Take `CC(C)CN(CC(=O)N(CCCCN)CC(=O)N(CC(=O)NC(CSC1CC(=O)N(c2ccc(-c3c4ccc(=O)cc-4oc4cc(O)ccc34)c(C(=O)O)c2)C1=O)C(N)=O)[C@H](C)c1ccccc1)C(=O)CN` (stereo partly drawn) (H-G[Nleu][Nlys][Nrpe][ξC](X1)-NH2): the result was inactive.

Consider `CC(C)CN(CC(=O)N(CCCCN)CC(=O)N(CC(=O)NCC(=O)NCC(=O)NCC(=O)NCC(=O)NCC(=O)NC(CSC1CC(=O)N(c2ccc(-c3c4ccc(=O)cc-4oc4cc(O)ccc34)c(C(=O)O)c2)C1=O)C(N)=O)[C@H](C)c1ccccc1)C(=O)CN` (stereo partly drawn) (H-G[Nleu][Nlys][Nrpe]GGGGG[ξC](X1)-NH2), for which the outcome was Active.
